Assay results as given in PubChem BioAssay (NCI).
Where “and” joins values, the source holds several entries; their conditions need not be identical. Equal values may be shown once.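 Dose response: 5 concentrations. Exposure: 48 h. Format: 96-well plates. Endpoint: linear interpolation; highest concentration if not reached. GI50: concentration for 50% inhibition of growth. The concentration for full growth arrest is given as TGI.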

Test system: KM20L2 colon
Experiment: NCI anticancer screen, dose series, 48 h

SMILES | TGI | GI50
COc1ccc(C2=C(Cl)c3cc(OC)c(OC)cc3C2Cl)cc1 (stereo not drawn) | 30.5 µM | –
O=C(/C=C/c1ccc(Cl)c(Cl)c1)c1ccc2ccccc2c1 | > 100 µM | –
Cc1cc(NS(=O)(=O)c2ccc(Nc3c4ccccc4nc4c(C(=O)N5CCN(CCO)CC5)cccc34)cc2)no1 | > 100 µM | –
COc1cc2[nH]c3c(c2cc1OC)CCN[C@]31CC[C@]2(CC3c4c(cc(OC)c(O)c42)CCN3C)C[C@H]1OC (stereo partly drawn) | 60.5 µM | –
O=C1c2ccccc2C(=O)C1(O)c1c[nH]c2ccccc12 | > 100 µM | –
c1ccc(C2N3CCCCC3[C@@H]3c4[nH]c5ccccc5c4CCN23)nc1 (stereo partly drawn) | > 100 µM | –
O=C(Nc1cc(Cl)c(Cl)cc1Cl)C(=O)C1C(=O)NC(=S)NC1=O | > 100 µM | –
COc1ccc(CN2CC(C)(C)C2=O)c(OC)c1 | > 100 µM | –
O=C(O)CNS(=O)(=O)c1ccc(NC(=O)c2ccc([N+](=O)[O-])cc2)cc1 | > 100 µM | –
CCCCNC1CCCCC[C@H]1O (stereo partly drawn) | > 100 µM | –
COc1ccc2c3c([nH]c2c1[N+](=O)[O-])C(C)N(C)CC3 (stereo not drawn) | > 100 µM | –
CCOC(=O)N[C@@H]1C(CC(=O)OC)O[C@H]2OC(C)(C)O[C@H]21 (stereo partly drawn) | > 100 µM | –
CCCCCCCCCCCCCCCC(=O)OCC(C[As](=O)(O)O)OC(=O)CCCCCCCCCCCCCCC (stereo not drawn) | > 100 µM | –
COc1cc(/C=C/c2ccc(OC)c(O)c2)cc(OC)c1 | 47.5 µM | –
O=C(Nc1ccccc1-c1nc2ccccc2[nH]c1=O)c1ccccc1 | > 100 µM | –
C=C(C)CCN[Si](c1ccccc1)(c1ccccc1)C(C)(C)C | 35.3 µM | –
CC1=[N+]([O-])c2ccccc2C(=O)C1=O | > 100 µM | –
CNC(=S)/N=C(\N)N(C)C | > 100 µM | –
CC(=O)C1Cn2c(nc3ccccc32)C[Se]1 (stereo not drawn) | 25.8 µM | –
COc1cc(Cc2nccc3cc(OC)c(OC)cc23)c(C(C)=O)cc1OC | 200 µM and > 750 µM | > 750 µM
CN(C)CCC1(C2=CCCC2)CC/C(=C\c2ccc(Cl)cc2)C1=O (stereo not drawn) | 7.82 µM | –
CC1=CC(C)(C)N=C2SC(c3ccc(N)cc3)=NN12 | > 100 µM | –
O=C1C2C3C=C4c5ccccc5N(c5ccccc5)C4(C2C(=O)N1c1ccc([N+](=O)[O-])cc1)[C@H]1C(=O)N(c2ccc([N+](=O)[O-])cc2)C(=O)[C@@H]31 (stereo partly drawn) | > 100 µM | –

Test system: DMS 114 small cell lung
Experiment: NCI anticancer screen, dose series, 48 h

SMILES | TGI | GI50
COc1ccc(C2=C(Cl)c3cc(OC)c(OC)cc3C2Cl)cc1 (stereo not drawn) | 31.8 µM | –
O=C(/C=C/c1ccc(Cl)c(Cl)c1)c1ccc2ccccc2c1 | > 100 µM | –
CCOC(=O)C(=O)Nc1ccccc1CC | > 100 µM | –
Cc1[nH]c(=O)nc2[nH][nH]c(=O)c12 | > 100 µM | –
Cc1cc(NS(=O)(=O)c2ccc(Nc3c4ccccc4nc4c(C(=O)N5CCN(CCO)CC5)cccc34)cc2)no1 | > 100 µM | –
COc1cc2[nH]c3c(c2cc1OC)CCN[C@]31CC[C@]2(CC3c4c(cc(OC)c(O)c42)CCN3C)C[C@H]1OC (stereo partly drawn) | 31.4 µM | –
O=C1c2ccccc2C(=O)C1(O)c1c[nH]c2ccccc12 | > 100 µM | –
c1ccc(C2N3CCCCC3[C@@H]3c4[nH]c5ccccc5c4CCN23)nc1 (stereo partly drawn) | 96.3 µM | –
O=C(Nc1cc(Cl)c(Cl)cc1Cl)C(=O)C1C(=O)NC(=S)NC1=O | > 100 µM | –
COc1ccc(CN2CC(C)(C)C2=O)c(OC)c1 | > 100 µM | –
CCOC(=O)/C(C)=C(/O)C(=O)OCC | > 100 µM | –
CCCCNC1CCCCC[C@H]1O (stereo partly drawn) | > 100 µM | –
COc1ccc2c3c([nH]c2c1[N+](=O)[O-])C(C)N(C)CC3 (stereo not drawn) | > 100 µM | –
CCOC(=O)N[C@@H]1C(CC(=O)OC)O[C@H]2OC(C)(C)O[C@H]21 (stereo partly drawn) | > 100 µM | –
CCCCCCCCCCCCCCCC(=O)OCC(C[As](=O)(O)O)OC(=O)CCCCCCCCCCCCCCC (stereo not drawn) | > 100 µM | –
COc1cc(/C=C/c2ccc(OC)c(O)c2)cc(OC)c1 | 17.9 µM | –
O=C(Nc1ccccc1-c1nc2ccccc2[nH]c1=O)c1ccccc1 | 40.7 µM | –
C=C(C)CCN[Si](c1ccccc1)(c1ccccc1)C(C)(C)C | 51.3 µM | –
CC1=[N+]([O-])c2ccccc2C(=O)C1=O | > 100 µM | –
CNC(=S)/N=C(\N)N(C)C | > 100 µM | –
CC(=O)C1Cn2c(nc3ccccc32)C[Se]1 (stereo not drawn) | 4.54 µM | –
COc1cc(Cc2nccc3cc(OC)c(OC)cc23)c(C(C)=O)cc1OC | 300 µM and 164 µM | 3.02 µM
CN(C)CCC1(C2=CCCC2)CC/C(=C\c2ccc(Cl)cc2)C1=O (stereo not drawn) | 21.8 µM | –
CC1=CC(C)(C)N=C2SC(c3ccc(N)cc3)=NN12 | > 100 µM | –
O=C1C2C3C=C4c5ccccc5N(c5ccccc5)C4(C2C(=O)N1c1ccc([N+](=O)[O-])cc1)[C@H]1C(=O)N(c2ccc([N+](=O)[O-])cc2)C(=O)[C@@H]31 (stereo partly drawn) | > 100 µM | –

Test system: HS 578T breast
Experiment: NCI anticancer screen, dose series, 48 h

SMILES | TGI
COc1ccc(C2=C(Cl)c3cc(OC)c(OC)cc3C2Cl)cc1 (stereo not drawn) | 76.5 µM
CCCCCCCCCCCCCCCC(=O)OCC(C[As](=O)(O)O)OC(=O)CCCCCCCCCCCCCCC (stereo not drawn) | > 100 µM

Test system: SNB-78 CNS
Experiment: NCI anticancer screen, dose series, 48 h

SMILES | TGI
COc1ccc(C2=C(Cl)c3cc(OC)c(OC)cc3C2Cl)cc1 (stereo not drawn) | 49.3 µM
